Reference: patent US6635459B1, “Nucleotide sequences encoding pinoresinol/lariciresinol reductase proteins and their methods of use” (Washington State University Research Foundation, priority 1996, dated 2003)
Values belong to the molecule of their own block, whether it stands above or below them.

Key:
E-coniferyl alcohol [1] = test: Kinetic characterization of conversion of E-coniferyl alcohol to (+)-pinoresinol with dirigent protein and oxidase/oxidant; format: biochemical, Forsythia intermedia; details: (+)-pinoresinol formation from E-coniferyl alcohol, dirigent protein 770 pmol ml^−1 alone or with Fraction III 12 μg protein ml^−1, laccase 2.07 pmol ml^−1, FMN 0.5 μmol ml^−1; for Km: read-out: Formal Km
Protocol: Assays were carried out as described in Example 3 by incubating a series of E-[9-^3H]coniferyl alcohol concentrations (between 8.00 and 0.13 μmol ml^−1, 7.3 MBq mole literl) with dirigent protein (770 pmol ml^−1) alone and in presence of Forsythia laccase (2.1 pmol ml^−1), fraction III (12 μg protein ml^−1), or FMN (0.5 μmol ml^−1). Assays with dirigent protein, in presence or absence of FMN, were incubated at 30° C. for 1 hour, whereas assays with Forsythia laccase or fraction III in presence or absence of dirigent protein were incubated at 30° C. for 15 min. If free-radical capture by the dirigent protein is the operative mechanism, the Michaelis-Menten parameters obtained will only represent formal rather than true values, because the highest free-energy intermediate state during the conversion of E-coniferyl alcohol into (+)-pinoresinol is still unknown and the relation between the concentration of substrate and that of the corresponding intermediate free-radical in open solution has not been delineated.
Bearing these qualifications in mind, we estimated formal Km and Vmax values for the dirigent protein preparation.

E-sinapyl alcohol = E-sinapyl alcohol coupling assay (oxidant with/without dirigent protein); format: biochemical, Forsythia intermedia; details: 6 hour assay
Protocol: Investigation of Substrate-Specific Stereoselectivity. The coupling stereoselectivity was substrate specific. Neither E-p-[9-^3H]coumaryl (4 μmol ml^−1, 44.5 kBq) or E-[8-^14C]sinapyl alcohols (4 μmol ml^−1, 8.3 kBq), which differ from E-coniferyl alcohol only by a methoxyl group substituent on the aromatic ring, yielded stereoselective products when incubated for 6 hours with FMN and ammonium peroxydisulfate respectively, in the presence and absence of the dirigent protein. Incubations were carried out as described above with the following modifications: E-p-[9-^3H]coumaryl (4 μmol ml^−1, 44.5 kBq) or E-[8-^14C]sinapyl alcohols (4 μmol ml^−1, 8.3 kBq) were used as substrates and, after 6 hour incubation at 30° C., the reaction mixture was extracted with EtOAc but without addition of radiochemical carriers.

HIV = details: cited from earlier work
E-coniferyl alcohol [2] = test: E-coniferyl alcohol coupling assay (oxidant with/without dirigent protein); format: biochemical, Forsythia intermedia; details: 6 hour assay
Protocol: E-coniferyl alcohol coupling assay. E-[9-^3H]Coniferyl alcohol (4 μmol ml^−1, 29.3 kBq) was incubated with a 120-kD laccase (previously purified from Forsythia intermedia stem tissue) over a […], in the presence and absence of the dirigent protein, as follows. Each assay consisted of E-[9-^3H]coniferyl alcohol (4 μmol ml^−1, 29.3 kBq, 7.3 MBq mole liter^−1; or 2 μmol ml^−1, 14.7 kBq with fraction III), the 78-kD dirigent protein, an oxidase or oxidant, or both [final concentrations: 770 pmol ml^−1 dirigent protein; 10.7 pmol protein ml^−1 Forsythia laccase; 12 μg protein ml^−1 fraction III; 0.5 μmol ml^−1 FMN; 0.5 μmol ml^−1 FAD; 1 and 10 μmol ml^−1 ammonium peroxydisulfate] in buffer (0.1 M MES-HEPES-sodium acetate, pH 5.0) to a total volume of 250 μl. The enzymatic reaction was initiated by addition of E-[9-^3H]coniferyl alcohol. Controls were performed in the presence of buffer alone.
After one hour incubation at 30° C. while shaking, the assay mixture was extracted with ethyl acetate (EtOAc, 500 μl) containing (±)-pinoresinols (7.5 μg), (±)-dehydrodiconiferyl alcohols (3.5 μg) and erythro/threo (±)-guaiacylglycerol 8-O-4′-coniferyl alcohol ethers (7.5 μg) as radiochemical carriers and ferulic acid (15.0 μg) as an internal standard. After centrifugation (13,800 g, 5 min), the EtOAc soluble components were removed and the extraction procedure repeated with EtOAc (500 μl). The EtOAc soluble components from each assay were combined, the solutions evaporated to dryness in vacuo, redissolved in methanol-water solution (1:1; 100 μl) with an aliquot (50 μl) thereof subjected to reversed-phase column chromatography (Waters, Nova-Pak C18, 150 mm by 3.8 mm). The elution conditions were as follows: acetonitrile/3% acetic acid in H2O (5:95) from 0 to 5 min, then linear gradients to ratios of 10:90 between 5 and 20 min, then to 20:80 between 20 and 45 min and finally to 50:50 between 45 and 60 min, at a flow rate of 8.8 ml min^−1 cm^−2.
Fractions corresponding to E-coniferyl alcohol, erythro/threo (±)-guaiacylglycerol 8-O-4′-coniferyl alcohol ethers, (±)-dehydrodiconiferyl alcohols and (±)-pinoresinols were individually collected, aliquots removed for liquid scintillation counting, and the remainder freeze-dried. Pinoresinol-containing fractions were redissolved in methanol (100 μl) and subjected to chiral column chromatography (Daicel, Chiralcel OD, 50 mm by 4.6 mm) with a solution of hexanes and ethanol (1:1) as the mobile phase (flow rate 3 ml min^−1 cm^−2), whereas dehydrodiconiferyl alcohol fractions were subjected to Chiralcel OF (250 mm by 4.6 mm) column chromatography eluted with a solution of hexanes and isopropanol (9:1) as the mobile phase (flow rate 2.4 ml min^−1 cm^−2), the radioactivity of the eluent being measured with a flow-through detector (Radiomatic, Model A120).
Ammonium peroxydisulfate readily undergoes homolytic cleavage (A. Usaitis, R. Makuska, Polymer 35:4896 (1994)) and is routinely used as an one-electron oxidant in acrylamide polymerization. Ammonium peroxydisulfate was first incubated with E-[9-^3H]coniferyl alcohol (4 μmol ml^−1, 29.3 kBq) for 6 hours using the E-coniferyl alcohol coupling assay procedure described above.

[3] = substrate: COc1cc(C[C@H]2CO[C@H](c3ccc(O)c(OC)c3)[C@H]2CO)ccc1O; test: Initial velocity studies, reductase 35 kDa isoform; format: biochemical, Forsythia intermedia; details: other: 35 kDa form of the enzyme, NADPH 80 μM, pH 7.4, 30° C.
Protocol: Kinetic Parameters. […] The initial velocity studies were carried out individually utilizing the two isoforms of the enzyme, and individually employing both (+)-pinoresinol and (+)-lariciresinol as substrates. Initial velocity studies were performed in triplicate experiments, using 50 mM Bis-Tris Propane buffer, pH 7.4 containing 5 mM dithiothreitol, pure enzyme (after MonoQ anion-exchange chromatography), ten different substrate concentrations (between 8.8 and 160 μM) at a constant NADPH concentration (80 μM). Incubations were carried out at 30° C. for 10 min (within the linear kinetic range). Kinetic parameters were determined from Lineweaver-Burk plots.

[4] = substrate: COc1cc(C[C@H]2CO[C@H](c3ccc(O)c(OC)c3)[C@H]2CO)ccc1O; test: purified protein, by the assay type; details: other: 36 kDa form of the enzyme, NADPH 80 μM, pH 7.4, 30° C.
E-coniferyl alcohol [5] = test: (+)-Pinoresinol-forming activity from E-[9-3H]coniferyl alcohol; format: biochemical, Forsythia intermedia
[6] = dirigent protein absent, FMN 0.5 μmol ml^−1 or ammonium peroxydisulfate 10 μmol ml^−1
[7] = dirigent protein present (770 pmol ml^−1), FMN 0.5 μmol ml^−1 or ammonium peroxydisulfate 10 μmol ml^−1
[8] = ammonium peroxydisulfate 1 μmol ml^−1, dirigent protein absent
[9] = ammonium peroxydisulfate 1 μmol ml^−1, dirigent protein present (770 pmol ml^−1)
[10] = ammonium peroxydisulfate 10 μmol ml^−1, dirigent protein absent
[11] = ammonium peroxydisulfate 10 μmol ml^−1, dirigent protein present (770 pmol ml^−1)
[12] = dirigent protein (770 pmol ml^−1) alone, no added oxidant

- Km (E-coniferyl alcohol [1]): 100 ± 10 µM
Molecule: Cc1cc2nc3c(=O)[nH]c(=O)nc-3n(C[C@H](O)[C@H](O)[C@H](O)COP(=O)(O)O)c2cc1C [FMN, flavin mononucleotide]
- Vmax (E-coniferyl alcohol [1]): 0.024 ± 0.001 mol s^−1 mol^−1 dirigent protein
- E-Sinapyl alcohol in dimer equivalents depleted (E-sinapyl alcohol; [6]): 570 ± 100 nmol/mL
- Racemic (±)-syringaresinols (E-sinapyl alcohol; [6]): 290 ± 40 nmol/mL
- E-Sinapyl alcohol in dimer equivalents depleted (E-sinapyl alcohol; [7]): 610 ± 110 nmol/mL
- Racemic (±)-syringaresinols (E-sinapyl alcohol; [7]): 340 ± 40 nmol/mL

Molecule: COc1cc(C[C@H]2C(=O)OC[C@@H]2Cc2ccc(OC)c(OC)c2)ccc1O [(−)-arctigenin]
- effectiveness against HIV (reverse transcriptase inhibitory activities) (HIV): effective against HIV

Molecule: CC(Cc1ccc(O)c(O)c1)C(C)Cc1ccc(O)c(O)c1 (centres unmarked) [nordihydroguaiaretic acid]
- effectiveness against HIV (reverse transcriptase inhibitory activities) (HIV): effective against HIV

Molecule: N.N.O=S(=O)(O)OOS(=O)(=O)O [Ammonium peroxydisulfate]
- (+)-Pinoresinol (E-coniferyl alcohol [2]; [8]): 0 nmol/mL
- (±)-Dehydro-diconiferyl alcohols (E-coniferyl alcohol [2]; [8]): 35 ± 2 nmol/mL
- (±)-Guaiacyl-glycerol 8-O-4′-coniferyl alcohol ethers (E-coniferyl alcohol [2]; [8]): 10 ± 1 nmol/mL
- (±)-Pinoresinols (E-coniferyl alcohol [2]; [8]): 16 ± 0 nmol/mL
- E-Coniferyl alcohol in dimer equivalents depleted (E-coniferyl alcohol [2]; [8]): 200 ± 4 nmol/mL
- Total dimers (E-coniferyl alcohol [2]; [8]): 61 ± 3 nmol/mL
- (+)-Pinoresinol (E-coniferyl alcohol [2]; [9]): 130 ± 10 nmol/mL
- (±)-Dehydro-diconiferyl alcohols (E-coniferyl alcohol [2]; [9]): 13 ± 1 nmol/mL
- (±)-Guaiacyl-glycerol 8-O-4′-coniferyl alcohol ethers (E-coniferyl alcohol [2]; [9]): 6 ± 0 nmol/mL
- (±)-Pinoresinols (E-coniferyl alcohol [2]; [9]): 0 nmol/mL
- E-Coniferyl alcohol in dimer equivalents depleted (E-coniferyl alcohol [2]; [9]): 250 ± 55 nmol/mL
- Total dimers (E-coniferyl alcohol [2]; [9]): 149 ± 11 nmol/mL
- (+)-Pinoresinol (E-coniferyl alcohol [2]; [10]): 0 nmol/mL
- (±)-Dehydro-diconiferyl alcohols (E-coniferyl alcohol [2]; [10]): 250 ± 10 nmol/mL
- (±)-Guaiacyl-glycerol 8-O-4′-coniferyl alcohol ethers (E-coniferyl alcohol [2]; [10]): 90 ± 4 nmol/mL
- (±)-Pinoresinols (E-coniferyl alcohol [2]; [10]): 135 ± 4 nmol/mL
- E-Coniferyl alcohol in dimer equivalents depleted (E-coniferyl alcohol [2]; [10]): 860 ± 30 nmol/mL
- Total dimers (E-coniferyl alcohol [2]; [10]): 475 ± 17 nmol/mL
- (+)-Pinoresinol (E-coniferyl alcohol [2]; [11]): 450 ± 10 nmol/mL
- (±)-Dehydro-diconiferyl alcohols (E-coniferyl alcohol [2]; [11]): 90 ± 3 nmol/mL
- (±)-Guaiacyl-glycerol 8-O-4′-coniferyl alcohol ethers (E-coniferyl alcohol [2]; [11]): 30 ± 1 nmol/mL
- (±)-Pinoresinols (E-coniferyl alcohol [2]; [11]): 0 nmol/mL
- E-Coniferyl alcohol in dimer equivalents depleted (E-coniferyl alcohol [2]; [11]): 1030 ± 25 nmol/mL
- Total dimers (E-coniferyl alcohol [2]; [11]): 570 ± 14 nmol/mL
- E-Sinapyl alcohol in dimer equivalents depleted (E-sinapyl alcohol; [6]): 1400 ± 120 nmol/mL
- Racemic (±)-syringaresinols (E-sinapyl alcohol; [6]): 1020 ± 40 nmol/mL
- E-Sinapyl alcohol in dimer equivalents depleted (E-sinapyl alcohol; [7]): 1520 ± 10 nmol/mL
- Racemic (±)-syringaresinols (E-sinapyl alcohol; [7]): 1060 ± 30 nmol/mL

B1: 35 kDa form of (+)-pinoresinol/(+)-lariciresinol reductase (Forsythia x intermedia) (protein)
chain: GKSKVLIIGGTGYLGRRLVKASLAQGHETYILHRPEIGVDIDKVEMLISFKMQGAHLVSGSFKDFNSLVEAVKLVDVVISAISGVHIRSHQILLQLKLVEAIKEAGNVKRFLPSEFGMDPAKFMDTAMEPGKVTLDEKMVVRKAIEKAGIPFTYVSANCFAGYFLGGLCQFGKILPSRDFVIIHGDGNKKAIYNNEDDIATYAIKTINDPRTLNKTIYISPPKNILSQREVVQTWEKLIGKELQKITLSKEDFLASVKELEYAQQVGLSHYHDVNYQGCLTSFEIGDEEEASKLYPEVKYTSVEEYLKRYV
notes: pure enzyme (after MonoQ anion-exchange chromatography); from tissue; host or cells: Forsythia intermedia stems
- Km [3]: 121 ± 5.0 µM
- Vmax [3]: 25.2±0.7 μmol h^−1 mg^−1 of protein

B2: 36 kDa form of (+)-pinoresinol/(+)-lariciresinol reductase (Forsythia x intermedia) (protein)
chain: GKSKVLIIGGTGYLGRRLVKASLAQGHETYILHRPEIGVDIDKVEMLISFKMQGAHLVSGSFKDFNSLVEAVKLVDVVISAISGVHIRSHQILLQLKLVEAIKEAGNVKRFLPSEFGMDPAKFMDTAMEPGKVTLDEKMVVRKAIEKAGIPFTYVSANCFAGYFLGGLCQFGKILPSRDFVIIHGDGNKKAIYNNEDDIATYAIKTINDPRTLNKTIYISPPKNILSQREVVQTWEKLIGKELQKITLSKEDFLASVKELEYAQQVGLSHYHDVNYQGCLTSFEIGDEEEASKLYPEVKYTSVEEYLKRYV
- Km [4]: 123 ± 6.0 µM
- Vmax [4]: 29.9±0.7 μmol h^−1 mg^−1 of protein

B3: Dirigent protein: 78-kD protein purified from Forsythia intermedia stems that guides stereoselective coupling of E-coniferyl alcohol radicals to (+)-pinoresinol (protein)
chain: MVSKTQIVALFLCFLTSTSSATYGRKPRPRRPCKELVFYFHDVLFKGNNYHNATSAIVGSPQWGNKTAMAVPFNYGDLVVFDDPITLDNNLHSPPVGRAQGMYFYDQKNTYNAWLGFSFLFNSTKYVGTLNFAGADPLLNKTRDISVIGGTGDFFMARGVATLMTDAFEGDVYFRLRVDINLYECW
- Vmax (E-coniferyl alcohol [1]): 0.02 ± 0.02 mol s^−1 mol^−1 dirigent protein
- Vmax (E-coniferyl alcohol [1]; listed as dirigent protein): 0.02±0.02 mol s^−1 mol^−1 dirigent prote
- Km (E-coniferyl alcohol [1]): 10000 ± 6000 µM
- (+)-pinoresinol-forming activity (E-coniferyl alcohol [5]; E-[9-3H]coniferyl alcohol as substrate for one hour): < 5 % of total activity loaded onto the POROS SP-M column
- (+)-pinoresinol formation (residual oxidizing capacity) (E-coniferyl alcohol [5]; protein by itself, over 10 hours): < 5%
- (+)-Pinoresinol (E-coniferyl alcohol [2]; [12]): 55 ± 1 nmol/mL
- (±)-Dehydro-diconiferyl alcohols (E-coniferyl alcohol [2]; [12]): 8 ± 1 nmol/mL
- (±)-Guaiacyl-glycerol 8-O-4′-coniferyl alcohol ethers (E-coniferyl alcohol [2]; [12]): 5 ± 1 nmol/mL
- (±)-Pinoresinols (E-coniferyl alcohol [2]; [12]): 0 nmol/mL
- E-Coniferyl alcohol in dimer equivalents depleted (E-coniferyl alcohol [2]; [12]): 61 ± 20 nmol/mL
- Total dimers (E-coniferyl alcohol [2]; [12]): 68 ± 3 nmol/mL
- E-Sinapyl alcohol in dimer equivalents depleted (E-sinapyl alcohol; [12]): 110 ± 10 nmol/mL
- Racemic (±)-syringaresinols (E-sinapyl alcohol; [12]): 50 ± 10 nmol/mL
